Results taken from the supplement of paper PMC10307832.

How the values were obtained:
Test in all cases: relative viability (nuclei count vs DMSO), 5 days (fraction); higher = more cells survive
[1] = compound: CCN1C(=O)C2=CC(=C(N=C2N(C1=O)C3CC3)N)C(=O)N + CC(C)C[C@H](NC(=O)[C@H](Cc1ccccc1)NC(=O)c1cnccn1)B(O)O [Bortezomib] (partner 0.002 µM)
In short: (§1)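 A single step with final 0.05% Triton X-100, 1% formaldehyde and 1 ug/ml Hoechst fixed the cells and stained nuclei 5 days after treatment. Lung cancer cell lines in 1536-well plates had been treated by pin tool the day after seeding with one drug alone or a fixed anchor-drug dose plus five library-drug doses (not always all listed) in √10 steps, and nuclei were counted on 4× images. Relative viability is the ratio of nuclei in treated wells to nuclei in vehicle wells, taken as the median of duplicate plates.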

[2] = compound: CCN1C(=O)C2=CC(=C(N=C2N(C1=O)C3CC3)N)C(=O)N + CS(=O)(=O)N1CCN(Cc2cc3nc(-c4cccc5[nH]ncc45)nc(N4CCOCC4)c3s2)CC1 [Pictilisib] (partner 1 µM)
In short: as §1

[3] = compound: CCN1C(=O)C2=CC(=C(N=C2N(C1=O)C3CC3)N)C(=O)N + C[C@@H](Oc1cc(-c2cnn(C3CCNCC3)c2)cnc1N)c1c(Cl)ccc(F)c1Cl [Crizotinib] (partner 1 µM)
In short: as §1

[4] = compound: CCN1C(=O)C2=CC(=C(N=C2N(C1=O)C3CC3)N)C(=O)N + C[C@]1(O)C[C@@H](c2nc(-c3ccc4ccc(-c5ccccc5)nc4c3)c3c(N)nccn32)C1 [Linsitinib] (partner 1 µM)
In short: as §1

[5] = compound: CCN1C(=O)C2=CC(=C(N=C2N(C1=O)C3CC3)N)C(=O)N + Cc1nc(NC(=O)N2CCC[C@H]2C(N)=O)sc1-c1ccnc(C(C)(C)C(F)(F)F)c1 [Alpelisib] (partner 2 µM)
In short: as §1

Cell Line | relative viability ([1]; first compound 0.253 µM) | relative viability ([1]; first compound 0.8 µM) | relative viability ([1]; first compound 2.53 µM) | relative viability ([1]; first compound 8 µM) | relative viability ([2]; first compound 0.253 µM) | relative viability ([2]; first compound 8 µM) | relative viability ([3]; first compound 0.253 µM) | relative viability ([3]; first compound 8 µM) | relative viability ([4]; first compound 0.253 µM) | relative viability ([4]; first compound 8 µM) | relative viability ([5]; first compound 0.253 µM) | relative viability ([5]; first compound 8 µM) | relative viability ([2]; first compound 0.8 µM) | relative viability ([2]; first compound 2.53 µM) | relative viability ([3]; first compound 0.8 µM) | relative viability ([3]; first compound 2.53 µM) | relative viability ([4]; first compound 0.8 µM) | relative viability ([4]; first compound 2.53 µM) | relative viability ([5]; first compound 0.8 µM) | relative viability ([5]; first compound 2.53 µM)
LCLC-97TM1 | 0.873 | 0.326 | 1.27 | 0.625 | 0.203 | 0.223 | 0.366 | 0.316 | 0.196 | 0.218 | 0.258 | 0.275 | – | – | – | – | – | – | – | –
LCLC-103H | 1.07 | 0.981 | 1.05 | 1.05 | 0.57 | 0.582 | 1.02 | 1.02 | 1.13 | 1.01 | 0.935 | 0.934 | 0.581 | 0.501 | 1.07 | 1.02 | 1.03 | 1.07 | 0.962 | 0.907
LOU-NH91 | 0.565 | 0.502 | 0.516 | 0.496 | 0.509 | 0.538 | 0.705 | 0.707 | 1.04 | 0.879 | 0.687 | 0.684 | 0.516 | 0.541 | 0.718 | 0.767 | 0.951 | 0.96 | 0.716 | 0.721
LU99A | 1.25 | 1.16 | 1.06 | 1.19 | 0.305 | 0.363 | 0.587 | 0.591 | 0.594 | 0.626 | 0.488 | 0.524 | 0.332 | 0.303 | 0.57 | 0.476 | 0.578 | 0.51 | 0.531 | 0.527
LXF-289 | 0.987 | 0.997 | 0.966 | 0.994 | 0.831 | 0.775 | 0.834 | 0.84 | 0.968 | 0.958 | 1.04 | 1.05 | 0.85 | 0.819 | 0.852 | 0.759 | 0.96 | 0.833 | 1.07 | 1.03
NCI-H23 | 1.02 | 1.03 | 1.08 | 0.956 | 0.453 | 0.487 | 0.387 | 0.532 | 0.602 | 0.565 | 0.638 | 0.789 | 0.447 | 0.473 | 0.561 | 0.396 | 0.61 | 0.56 | 0.741 | 0.615
NCI-H322M | 1.25 | 0.701 | 1.25 | 1.14 | 0.452 | 0.488 | 0.814 | 0.943 | 0.89 | 0.914 | 0.855 | 0.656 | 0.504 | 0.486 | 0.872 | 0.887 | 0.9 | 0.865 | 0.694 | 0.765
NCI-H441 | 0.464 | 0.421 | 0.456 | 0.775 | 0.561 | 0.576 | 0.706 | 0.781 | 0.49 | 0.53 | 0.957 | 0.598 | 0.48 | 0.462 | 0.654 | 0.773 | 0.545 | 0.697 | 0.756 | 0.637
NCI-H460 | 1.16 | 1.03 | 0.983 | 1.23 | 0.372 | 0.341 | 0.943 | 0.986 | 0.927 | 0.71 | 0.471 | 0.466 | 0.339 | 0.461 | 0.969 | 0.684 | 0.806 | 0.71 | 0.433 | 0.467
NCI-H520 | 0.574 | 0.574 | 0.743 | 0.612 | 0.273 | 0.27 | 0.698 | 1.29 | 0.938 | 1.11 | 0.89 | 0.923 | 0.302 | 0.317 | 0.64 | 0.645 | 0.951 | 0.961 | 0.765 | 0.962
NCI-H596 | – | 0.807 | 1.11 | 1.01 | 0.449 | 0.403 | 1.05 | 0.948 | 0.991 | 1.18 | 0.491 | 0.438 | 0.36 | 0.454 | 0.984 | 1.08 | 1.11 | 0.926 | 0.436 | 0.474
NCI-H647 | 0.92 | 1.05 | 0.951 | 0.784 | 0.424 | 0.462 | 0.869 | 1.26 | 1.11 | 1.09 | 1.11 | 1.07 | – | 0.432 | 0.906 | 0.948 | 0.995 | 1.08 | 1.17 | 1.14
NCI-H650 | 1.03 | 0.701 | 0.935 | 0.701 | 0.997 | 0.893 | 0.832 | 0.716 | 0.949 | 0.697 | 1.22 | 1.02 | 0.922 | 0.684 | 0.721 | 0.615 | 0.636 | 0.957 | 1.06 | 1
NCI-H661 | 0.809 | 0.9 | 0.793 | 0.942 | 0.401 | 0.395 | 1.05 | 1.06 | 0.568 | 0.603 | 0.711 | 0.778 | 0.368 | 0.45 | 1.05 | 0.987 | 0.636 | 0.558 | 0.78 | 0.742
NCI-H727 | 0.806 | 0.843 | 0.805 | 0.875 | 0.441 | 0.508 | 0.899 | 0.882 | 0.297 | 0.272 | 0.568 | 0.658 | 0.375 | 0.428 | 0.797 | 0.843 | 0.354 | 0.282 | 0.572 | 0.598
